Laboratory results as given in patent US5550110A, “Endothelin Antagonists II” (Warner-Lambert Company, priority 1994, dated 1996).
Peptide text beside a SMILES is read from it.

Assays:
[1] = biological target: T1, human ETB receptor (cloned, CHO-K1 cells) (Homo sapiens, UniProt P24530); assay: Human Endothelin Receptor Binding Assay-B (hERBA-B), binding to human cloned receptor; conditions: membranes of transfected CHO-K1 cells
T1 construct: The 1.35 kb HindIII/XbaI restriction fragment of clone 12 of the hETBR was inserted into the eukaryotic expression vector pRcCMV; expressed in transfected cells; host or cells: CHO-K1
Procedure: Human Endothelin Receptor Biding Assay-B (hERBA-B) [^125 I]-ET-1 Binding to Human Cloned Receptor
A human placenta cDNA library was constructed in bacteriophage lambda gt11 and approximately 10^6 plaques were screened with a ^32 P-labelled 1.3 kilobase HindIII/XbaI restriction fragment of rat ETBR cDNA as a probe. Plaque hybridization was carried out for 16 hours at 42° C. in a solution containing 100 μg/mL calf thymus DNA, 1×Denhardt's solution, 5×sodium saline citrate (SSC), 50 mM sodium phosphate, and 0.1% sodium lauryl sulfate (SDS). The membranes were then washed twice for 30 minutes each in 2×SSC and 0.1% SDS at 42° C. A final wash was carried out in 0.5×SSC with 0.1% SDS at 55° C. The positive clones were purified and subcloned into a pUC19 plasmid. DNA sequencing was performed by the dideoxynucleotide chain termination method and human ETBR (h ETBR) was identified by reading both DNA strands.
The 1.35 kb HindIII/XbaI restriction fragment of clone 12 of the hETBR was inserted into the eukaryotic expression vector pRcCMV (pRcCMV-hETBR). CHO-K1 cells were transfected with 20 μg of pRcCMV-hETBR by electroporation at 300 V, 800 μF, low ohms for 1 second. […] Expression levels of human ETBR were determined by the receptor binding assay described below using [^125 I]-ET-3 as the radioligand. […]

[2] = biological target: T2, endothelin receptor (ETB), rat cerebellar membranes (Rattus norvegicus, UniProt P21451); assay: Endothelin Receptor Binding Assay-B (ERBA-B), [125I]-ET-1 binding in rat cerebellar membranes; conditions: [125I]-ET-1 25 pM, read-out: ERRA-B IC50
T2 construct: thaw one aliquot of frozen rat cerebellar membranes (2 mg protein in 0.5 mL); from tissue; host or cells: rat cerebellum (membranes)
T2 sequence (P21451 27-442): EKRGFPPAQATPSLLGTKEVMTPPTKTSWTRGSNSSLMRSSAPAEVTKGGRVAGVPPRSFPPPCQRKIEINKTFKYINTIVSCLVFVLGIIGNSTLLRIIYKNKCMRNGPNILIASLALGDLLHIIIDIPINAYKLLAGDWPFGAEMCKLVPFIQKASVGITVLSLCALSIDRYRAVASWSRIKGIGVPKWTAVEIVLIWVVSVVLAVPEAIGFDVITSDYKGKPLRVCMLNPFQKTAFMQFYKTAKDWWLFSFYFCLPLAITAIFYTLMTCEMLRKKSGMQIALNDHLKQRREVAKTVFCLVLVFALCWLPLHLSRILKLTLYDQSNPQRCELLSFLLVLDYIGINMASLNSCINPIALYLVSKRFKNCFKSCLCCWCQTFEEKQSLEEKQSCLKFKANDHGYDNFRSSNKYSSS
Procedure: Endothelin Receptor Binding Assay-B (ERBA-B) [^125 I]-ET-1 Binding in Rat Cerebellar Membranes
The tissue is made up of 20 mM tris(hydroxymethyl)aminomethane hydrochloride (Trizma) buffer, 2 mM ethylenediaminetetra acetate, 100 μM phenylmethylsulfonyl fluoride.
First, thaw one aliquot of frozen rat cerebellar membranes (2 mg protein in 0.5 mL). Next, add 0.5 mL membrane aliquot to 4.5 mL cold tissue buffer, polytron at 7,500 revolutions per minute for 10 seconds. Finally, dilute tissue suspension 1/100 (0.1 mL suspension+9.9 mL tissue buffer), polytron again, and place ice.
Medium 199 with Hank's salts plus 25 mM Hepes+1 mg/mL bovine serum albumin.
Amersham [^125 I]-ET-1 (aliquots of 2×10^6 cpm per […] aliquot of [^125 I]-ET-1 with 5.2 mL dilution buffer, place on ice until use (final concentration will be 20,000 cpm per tube, or 25 pM).
Add 50 μL each of cold [^125 ]-ET-1 and competing ligand to tubes on ice. Mix in 150 μL of tissue to each tube, vortex briefly, then tap to force all liquids to bottom (total assay volume=250 μL). Then place the tubes in a 37° C. water bath for 2 hours.
Add 2.5 mL cold wash buffer (50 mM Trizma buffer) to each tube, filter, and then wash tube with additional 2.5 mL wash buffer and add to filter. Finally, wash filters with an additional 2.5 mL of cold wash buffer.
Count filters for radioactivity in gamma counter.

T1 sequence (P24530 27-442): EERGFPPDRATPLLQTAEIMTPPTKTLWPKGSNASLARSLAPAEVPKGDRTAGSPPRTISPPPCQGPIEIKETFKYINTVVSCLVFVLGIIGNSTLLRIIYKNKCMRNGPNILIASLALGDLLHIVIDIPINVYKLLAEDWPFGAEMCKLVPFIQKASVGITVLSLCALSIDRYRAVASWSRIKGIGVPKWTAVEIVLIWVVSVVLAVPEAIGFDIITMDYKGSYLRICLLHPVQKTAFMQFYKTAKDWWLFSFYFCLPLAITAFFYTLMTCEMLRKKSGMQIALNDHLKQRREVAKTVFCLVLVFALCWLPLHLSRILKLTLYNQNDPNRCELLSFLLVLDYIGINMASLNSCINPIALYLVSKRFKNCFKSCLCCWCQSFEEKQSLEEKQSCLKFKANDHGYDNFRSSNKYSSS

Structure (SMILES) | IC50 [1] | IC50 [2]
CC[C@H](C)[C@H](NC(=O)[C@H](CC(=O)O)NC(=O)[C@H](CC(C)C)NC(=O)[C@H](NC(C)=O)C1c2ccccc2CCc2ccccc21)C(=O)N[C@H](C(=O)N[C@@H](Cc1c[nH]c2ccccc12)C(=O)O)[C@@H](C)CC [Example 1, Ac-D-Bhg-Leu-Asp-Ile-Ile-Trp] (HELM PEPTIDE1{[ac].[O=C([C@H](N[*:1])C1c2ccccc2CCc2ccccc21)[*:2]].L.D.I.I.W}$$$$V2.0) | 210 nM | 19 nM
CC[C@H](C)[C@H](NC(=O)[C@H](CC(=O)O)NC(=O)[C@H](CC(C)C)NC(=O)[C@H](NC(C)=O)C1c2ccccc2CCc2ccccc21)C(=O)N(C)[C@H](C(=O)N[C@@H](Cc1c[nH]c2ccccc12)C(=O)O)[C@@H](C)CC [Example 19, Ac-D-Bhg-Leu-Asp-Ile-N-MeIle-Trp] (HELM PEPTIDE1{[ac].[O=C([C@H](N[*:1])C1c2ccccc2CCc2ccccc21)[*:2]].L.D.I.[meI].W}$$$$V2.0) | 25 nM | 40 nM
